Reference: patent US6610675B1 (priority 1980, dated 2003)

Key:
thymus weight in rats = experiment: Thymus inhibition testing (subcutaneous administration); assay type: in vivo, rat; conditions: for Body weight gain / Thymus wt. / Thymus wt. Inhibition / Thymus wt. Decrease: three days
Procedure: Several further studies were undertaken to determine the effects of selected compounds of the invention on thymi weights in rats when the drugs were systemically administered. In each of these studies, male Sprague-Dawley rats were used. […] On the fifth day (48 hours following the last treatment), the animals were sacrificed and the thymi weights were recorded. […] It is evident that the higher the inhibition of thymus activity at a given dose, the more toxic the compound is.

[1] = test system: granulation tissue formation caused by implantation of cotton pellets; experiment: Granuloma formation test (local cotton pellet granuloma assay); assay type: in vivo, rat; conditions: for Relative potency (ED40) / Relative potency (ED60): chloromethyl 11β-hydroxy-17α-isopropoxycarbonyloxyandrost-4-en-3-one-17β-carboxylate = 1; for ED40: dose causing 40% inhibition of granulation tissue weight; for ED60: dose causing 60% inhibition of granulation tissue weight
Procedure: The test compound was dissolved in acetone and aliquots of varying concentrations were injected into cotton pellets. The pellets were dried and then one pellet was implanted beneath the skin of each test rat. Six days later, the animals were sacrificed and the granulation tissue (granuloma) which formed in and around the implanted pellet was removed, dried and weighed. In addition, the thymi and adrenals were removed and weighed.

[2] = dose causing 50% inhibition of granulation tissue weight

## CC(C)OC(=O)O[C@]1(C(=O)OCCl)[C@@H](C)C[C@H]2[C@@H]3CCC4=CC(=O)C=C[C@]4(C)[C@@]3(F)[C@@H](O)C[C@@]21C [chloromethyl 9α-fluoro-11β-hydroxy-17α-isopropoxycarbonyloxy-16β-methylandrosta-1,4-dien-3-one-17β-carboxylate]
Thymus weight in rats; Table VIII, 10 mg/kg/day s.c.
  Body weight gain: 5.3 ± 1.4 g
  Thymus wt.: 260 ± 26 mg
  Thymus wt. Inhibition: 52.7%
[1]; Table IV, 1 μg/pellet
  Body wt. gain: 33.0 ± 1.7 g
  Granulation tissue Dry wt.: 44.4 ± 5.4 mg
  Granulation tissue Dry wt. Inhibition: 45.3%
  Granulation tissue Wet wt.: 423 ± 19 mg
  Granulation tissue Wet wt. Inhibition: 25.3%
  Thymus wt.: 526 ± 30 mg
[1]; Table IV, 3 μg/pellet
  Body wt. gain: 30.4 ± 1.1 g
  Granulation tissue Dry wt.: 26.9 ± 4.4 mg
  Granulation tissue Dry wt. Inhibition: 66.9%
  Granulation tissue Wet wt.: 351 ± 19 mg
  Granulation tissue Wet wt. Inhibition: 38.0%
  Thymus wt.: 471 ± 20 mg
[1]; Table IV, 10 μg/pellet
  Body wt. gain: 33.0 ± 1.5 g
  Granulation tissue Dry wt.: 29.9 ± 3.3 mg
  Granulation tissue Dry wt. Inhibition: 63.2%
  Granulation tissue Wet wt.: 362 ± 8 mg
  Granulation tissue Wet wt. Inhibition: 36.0%
  Thymus wt.: 474 ± 25 mg
[1]; Table IV, 30 μg/pellet
  Body wt. gain: 31.8 ± 1.7 g
  Granulation tissue Dry wt.: 19.9 ± 2.3 mg
  Granulation tissue Dry wt. Inhibition: 75.5%
  Granulation tissue Wet wt.: 315 ± 12 mg
  Granulation tissue Wet wt. Inhibition: 44.3%
  Thymus wt.: 489 ± 26 mg
[1]
  Relative potency (ED40): 1228
  Relative potency (ED60): 184
  ED40: 0.25 μg/pellet
  ED60: 3.75 μg/pellet
[1]; [2]
  ED50: 0.97 μg/pellet

## COC(=O)O[C@]1(C(=O)OCCl)[C@H](C)C[C@H]2[C@@H]3CCC4=CC(=O)C=C[C@]4(C)[C@@]3(F)[C@@H](O)C[C@@]21C [chloromethyl 9α-fluoro-11β-hydroxy-17α-methoxycarbonyloxy-16α-methylandrosta-1,4-dien-3-one-17β-carboxylate]
Thymus weight in rats; Table IX, 3 mg/kg/day s.c.
  Body weight gain: 18.8 ± 1.4 g
  Thymus wt.: 426 ± 19 mg
  Thymus wt. Decrease: 0.0%
Thymus weight in rats; Table IX, 10 mg/kg/day s.c.
  Body weight gain: 13.8 ± 1.6 g
  Thymus wt.: 354 ± 8 mg
  Thymus wt. Decrease: 16.9%
Thymus weight in rats; Table IX, 30 mg/kg/day s.c.
  Body weight gain: 12.0 ± 0.8 g
  Thymus wt.: 282 ± 11 mg
  Thymus wt. Decrease: 33.8%
Thymus weight in rats; Table IX, 100 mg/kg/day s.c.
  Body weight gain: 9.8 ± 1.3 g
  Thymus wt.: 206 ± 15 mg
  Thymus wt. Decrease: 51.6%
Thymus weight in rats; Table XII, hydrocortisone 17-butyrate = 1
  Relative Potency (TED40): 1/36
Thymus weight in rats; Table XII, thymus inhibition effect, subcutaneously
  TED40: 46.0 mg/kg
[1]; Table XII, anti-inflammatory effect in cotton pellet granuloma
  ED50: 2.38 μg/pellet

## CCOC(=O)O[C@]1(C(=O)OCCl)[C@@H](C)C[C@H]2[C@@H]3CCC4=CC(=O)C=C[C@]4(C)[C@@]3(F)[C@@H](O)C[C@@]21C [chloromethyl 17α-ethoxycarbonyloxy-9α-fluoro-11β-hydroxy-16β-methylandrosta-1,4-dien-3-one-17β-carboxylate]
Thymus weight in rats; Table VIII, 10 mg/kg/day s.c.
  Body weight gain: 2.4 ± 1.8 g
  Thymus wt.: 266 ± 20 mg
  Thymus wt. Inhibition: 51.6%
[1]; Table V-a, 0.3 μg/pellet
  Body wt. gain: 32.5 ± 1.1 g
  Granulation tissue Dry wt.: 61.8 ± 5.7 mg
  Granulation tissue Dry wt. Inhibition: 22.8%
  Granulation tissue Wet wt.: 499 ± 36 mg
  Granulation tissue Wet wt. Inhibition: 5.0%
  Thymus wt.: 501 ± 29 mg
[1]; Table V-a, 1 μg/pellet
  Body wt. gain: 36.3 ± 0.9 g
  Granulation tissue Dry wt.: 57.0 ± 6.2 mg
  Granulation tissue Dry wt. Inhibition: 28.8%
  Granulation tissue Wet wt.: 437 ± 24 mg
  Granulation tissue Wet wt. Inhibition: 16.8%
  Thymus wt.: 566 ± 31 mg
[1]; Table V-a, 3 μg/pellet
  Body wt. gain: 33.8 ± 1.3 g
  Granulation tissue Dry wt.: 47.5 ± 5.0 mg
  Granulation tissue Dry wt. Inhibition: 40.7%
  Granulation tissue Wet wt.: 422 ± 32 mg
  Granulation tissue Wet wt. Inhibition: 19.6%
  Thymus wt.: 500 ± 27 mg
[1]; Table V-a, 10 μg/pellet
  Body wt. gain: 31.1 ± 1.7 g
  Granulation tissue Dry wt.: 34.8 ± 5.5 mg
  Granulation tissue Dry wt. Inhibition: 56.6%
  Granulation tissue Wet wt.: 370 ± 21 mg
  Granulation tissue Wet wt. Inhibition: 29.5%
  Thymus wt.: 421 ± 30 mg
[1]
  Relative potency (ED40): 133
  Relative potency (ED60): 38
  ED40: 2.31 μg/pellet
  ED60: 18.01 μg/pellet
[1]; [2]
  ED50: 6.45 μg/pellet
